According to patent US9707305B2, “Formulas for diagnosing and treating hormone-dependent cancers and cancers of the organs responsible for steroid hormone synthesis” (Commissariat à l'énergie atomique et aux énergies …, priority 2011, dated 2017):

Experiment: Biodistribution of the nano-emulsion of Example 1.1 in male mice (Tables 15 to 21)
Format: in vivo
Conditions: FVB male mouse
Description: In the following examples, the radioactivity was counted with the TRiCarb Counter (Ref: Packard, Liquid Scintillation Analyzers; Models 2200CA).
Fluobeam 700 (Fluoptics) is the apparatus with which the whole of the organs from the biodistribution were analyzed in fluorescence as well as the one with which the biodistribution kinetics of the nano-emulsions were established in vivo. This imaging system allows viewing of the fluorescence in spectral bands from 700 to 850 nm for a 650 nm excitation. The apparatus consists of an electric case containing the laser of class 3B, its power supply and an optical head containing the CCD camera. […]

**Q.** For CCCCCCCCCCCCCCCCCCN1/C(=C/C=C/C=C/C2=[N+](CCCCCCCCCCCCCCCCCC)c3ccccc3C2(C)C)C(C)(C)c2ccccc21.[O-][Cl+3]([O-])([O-])[O-] [DiD, l,r-dioctadécyl-3,3,3′,3′-tetramethylindodicarbocyanine (DiD) perchlorate], which “fluorescence intensity in Adrenal gland” value (2 h) is on record?
**A.** Its value is 779.1.

**Q.** And the “fluorescence intensity in Adrenal gland” value (4 h)?
**A.** Its value is 536.1.

**Q.** What about the “fluorescence intensity in Adrenal gland” value (6 h) of the same molecule?
**A.** Its value is 721.9.

**Q.** And the “fluorescence intensity in Adrenal gland” value (16 h)?
**A.** Its value is 1086.2.

**Q.** And the “fluorescence intensity in Adrenal gland” value (24 h)?
**A.** The value was 1105.9.

**Q.** And the “fluorescence intensity in Adrenal gland” value (48 h)?
**A.** Its value is 783.7.

**Q.** And the “fluorescence intensity in Adrenal gland” value (72 h)?
**A.** Its value is 717.3.

**Q.** And the “fluorescence intensity in Brain” value (2 h)?
**A.** Its value is 186.5.

**Q.** What about the “fluorescence intensity in Brain” value (4 h) of the same molecule?
**A.** Its value is 150.6.

**Q.** What about the “fluorescence intensity in Brain” value (6 h) of the same molecule?
**A.** Its value is 235.9.

**Q.** And the “fluorescence intensity in Brain” value (16 h)?
**A.** Its value is 134.7.

**Q.** And the “fluorescence intensity in Brain” value (24 h)?
**A.** The value was 109.3.

**Q.** And the “fluorescence intensity in Brain” value (48 h)?
**A.** Its value is 160.4.

**Q.** And the “fluorescence intensity in Brain” value (72 h)?
**A.** Its value is 14.8.

**Q.** What about the “fluorescence intensity in Fat” value (2 h) of the same molecule?
**A.** Its value is 184.0.

**Q.** And the “fluorescence intensity in Fat” value (4 h)?
**A.** Its value is 128.3.

**Q.** What about the “fluorescence intensity in Fat” value (6 h) of the same molecule?
**A.** The value was 221.1.

**Q.** What about the “fluorescence intensity in Fat” value (16 h) of the same molecule?
**A.** The value was 117.0.

**Q.** And the “fluorescence intensity in Fat” value (24 h)?
**A.** Its value is 142.1.

**Q.** What about the “fluorescence intensity in Fat” value (48 h) of the same molecule?
**A.** The value was 185.1.

**Q.** And the “fluorescence intensity in Fat” value (72 h)?
**A.** The value was 78.0.

**Q.** And the “fluorescence intensity in Heart” value (2 h)?
**A.** Its value is 427.6.

**Q.** What about the “fluorescence intensity in Heart” value (4 h) of the same molecule?
**A.** The value was 306.9.

**Q.** What about the “fluorescence intensity in Heart” value (6 h) of the same molecule?
**A.** Its value is 253.8.

**Q.** What about the “fluorescence intensity in Heart” value (16 h) of the same molecule?
**A.** Its value is 281.5.

**Q.** And the “fluorescence intensity in Heart” value (24 h)?
**A.** Its value is 239.7.

**Q.** And the “fluorescence intensity in Heart” value (48 h)?
**A.** The value was 178.1.

**Q.** And the “fluorescence intensity in Heart” value (72 h)?
**A.** Its value is 142.3.

**Q.** What about the “fluorescence intensity in Intestine” value (2 h) of the same molecule?
**A.** The value was 392.1.

**Q.** What about the “fluorescence intensity in Intestine” value (4 h) of the same molecule?
**A.** The value was 336.2.

**Q.** What about the “fluorescence intensity in Intestine” value (6 h) of the same molecule?
**A.** The value was 378.0.

**Q.** And the “fluorescence intensity in Intestine” value (16 h)?
**A.** The value was 640.4.

**Q.** And the “fluorescence intensity in Intestine” value (24 h)?
**A.** The value was 621.0.

**Q.** What about the “fluorescence intensity in Intestine” value (48 h) of the same molecule?
**A.** Its value is 381.6.

**Q.** What about the “fluorescence intensity in Intestine” value (72 h) of the same molecule?
**A.** The value was 267.8.

**Q.** And the “fluorescence intensity in Kidney” value (2 h)?
**A.** Its value is 601.1.

**Q.** And the “fluorescence intensity in Kidney” value (4 h)?
**A.** The value was 505.0.

**Q.** And the “fluorescence intensity in Kidney” value (6 h)?
**A.** Its value is 427.7.

**Q.** And the “fluorescence intensity in Kidney” value (16 h)?
**A.** Its value is 343.0.

**Q.** And the “fluorescence intensity in Kidney” value (24 h)?
**A.** The value was 323.1.

**Q.** What about the “fluorescence intensity in Kidney” value (48 h) of the same molecule?
**A.** The value was 168.3.

**Q.** And the “fluorescence intensity in Kidney” value (72 h)?
**A.** The value was 160.3.

**Q.** What about the “fluorescence intensity in Liver” value (2 h) of the same molecule?
**A.** The value was 831.9.

**Q.** What about the “fluorescence intensity in Liver” value (4 h) of the same molecule?
**A.** The value was 813.0.

**Q.** And the “fluorescence intensity in Liver” value (6 h)?
**A.** The value was 847.4.

**Q.** And the “fluorescence intensity in Liver” value (16 h)?
**A.** The value was 1157.2.

**Q.** And the “fluorescence intensity in Liver” value (24 h)?
**A.** Its value is 1152.7.

**Q.** What about the “fluorescence intensity in Liver” value (48 h) of the same molecule?
**A.** Its value is 988.2.

**Q.** And the “fluorescence intensity in Liver” value (72 h)?
**A.** The value was 648.0.

**Q.** What about the “fluorescence intensity in Lung” value (2 h) of the same molecule?
**A.** Its value is 559.9.

**Q.** And the “fluorescence intensity in Lung” value (4 h)?
**A.** The value was 446.4.

**Q.** And the “fluorescence intensity in Lung” value (6 h)?
**A.** The value was 426.0.

**Q.** What about the “fluorescence intensity in Lung” value (16 h) of the same molecule?
**A.** The value was 423.5.

**Q.** And the “fluorescence intensity in Lung” value (24 h)?
**A.** The value was 406.0.

**Q.** And the “fluorescence intensity in Lung” value (48 h)?
**A.** Its value is 346.5.

**Q.** And the “fluorescence intensity in Lung” value (72 h)?
**A.** The value was 286.6.

**Q.** And the “fluorescence intensity in Muscle” value (2 h)?
**A.** The value was 176.7.

**Q.** And the “fluorescence intensity in Muscle” value (4 h)?
**A.** The value was 152.3.

**Q.** And the “fluorescence intensity in Muscle” value (6 h)?
**A.** Its value is 169.3.

**Q.** And the “fluorescence intensity in Muscle” value (16 h)?
**A.** The value was 281.9.

**Q.** And the “fluorescence intensity in Muscle” value (24 h)?
**A.** The value was 144.9.

**Q.** What about the “fluorescence intensity in Muscle” value (48 h) of the same molecule?
**A.** The value was 131.7.

**Q.** What about the “fluorescence intensity in Muscle” value (72 h) of the same molecule?
**A.** Its value is 109.2.

**Q.** And the “fluorescence intensity in Pancreas” value (2 h)?
**A.** Its value is 255.1.

**Q.** What about the “fluorescence intensity in Pancreas” value (4 h) of the same molecule?
**A.** The value was 295.0.

**Q.** What about the “fluorescence intensity in Pancreas” value (6 h) of the same molecule?
**A.** The value was 347.0.

**Q.** What about the “fluorescence intensity in Pancreas” value (16 h) of the same molecule?
**A.** Its value is 332.6.

**Q.** And the “fluorescence intensity in Pancreas” value (24 h)?
**A.** The value was 268.9.

**Q.** What about the “fluorescence intensity in Pancreas” value (48 h) of the same molecule?
**A.** The value was 266.2.

**Q.** What about the “fluorescence intensity in Pancreas” value (72 h) of the same molecule?
**A.** The value was 160.6.

**Q.** What about the “fluorescence intensity in Salivary gland” value (2 h) of the same molecule?
**A.** Its value is 310.0.

**Q.** What about the “fluorescence intensity in Salivary gland” value (4 h) of the same molecule?
**A.** The value was 297.8.

**Q.** And the “fluorescence intensity in Salivary gland” value (6 h)?
**A.** The value was 488.5.

**Q.** What about the “fluorescence intensity in Salivary gland” value (16 h) of the same molecule?
**A.** The value was 838.8.

**Q.** What about the “fluorescence intensity in Salivary gland” value (24 h) of the same molecule?
**A.** Its value is 501.1.

**Q.** And the “fluorescence intensity in Salivary gland” value (48 h)?
**A.** Its value is 489.7.

**Q.** What about the “fluorescence intensity in Salivary gland” value (72 h) of the same molecule?
**A.** The value was 430.2.
